# Laboratory results published in patent US11325900B2, “5-(pyrimidin-4-yl)thiazol-2-yl urea derivatives as therapeutic agents” (AUCENTRA HOLDINGS PTY LTD, priority 2018, dated 2022).
# Assays:
# CDK8/CycC = target: T1, CDK8/CycC (Homo sapiens, UniProt P49336); experiment: Radiometric protein kinase assay (33PanQinase Activity Assay, ProQinase); format: biochemical; details: 1.0 μM ATP, 1.0 μg/50 μL substrate RBER-IRStide, duplicate measurements, read-out: CDK8 Kinase inhibition IC50
# T1 construct: purchased ProQinase GmbH, Freiburg, Germany
# T1 sequence (P49336 whole entry): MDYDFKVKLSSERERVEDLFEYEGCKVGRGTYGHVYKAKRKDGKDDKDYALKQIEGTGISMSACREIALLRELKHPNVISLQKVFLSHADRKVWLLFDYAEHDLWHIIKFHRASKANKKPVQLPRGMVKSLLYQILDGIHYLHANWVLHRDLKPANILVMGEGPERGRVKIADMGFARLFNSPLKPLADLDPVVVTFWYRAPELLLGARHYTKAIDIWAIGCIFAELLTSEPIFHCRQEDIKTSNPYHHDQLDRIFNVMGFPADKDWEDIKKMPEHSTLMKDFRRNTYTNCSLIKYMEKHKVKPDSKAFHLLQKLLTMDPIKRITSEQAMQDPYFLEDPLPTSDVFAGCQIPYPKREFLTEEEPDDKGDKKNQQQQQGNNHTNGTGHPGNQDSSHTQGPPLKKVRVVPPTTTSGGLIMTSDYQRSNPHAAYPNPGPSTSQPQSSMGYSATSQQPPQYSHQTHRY
# T1 sequence (P24863 whole entry partner): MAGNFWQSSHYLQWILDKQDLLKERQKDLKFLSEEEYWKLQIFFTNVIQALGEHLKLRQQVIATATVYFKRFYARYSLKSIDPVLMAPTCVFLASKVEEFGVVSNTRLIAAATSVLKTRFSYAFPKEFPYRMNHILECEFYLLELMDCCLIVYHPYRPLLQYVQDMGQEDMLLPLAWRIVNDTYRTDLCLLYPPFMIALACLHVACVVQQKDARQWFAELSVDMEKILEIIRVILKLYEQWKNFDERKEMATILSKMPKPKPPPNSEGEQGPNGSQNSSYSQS
# Experimental: The kinase activity of CDK8/CycC was measured using a radiometric protein kinase assay (33PanQinase® Activity Assay) by ProQinase GmbH, Freiburg, Germany, with the protocols shown at www.proqinase.com/sites/default/files/public/uploads/WildtypeProfiler/radiometric_assay_v05_2012_manual.pdf. IC50 determination (8.3 nM with 1.0 μM ATP and 1.0 μg/50 μL of substrate RBER-IRStide) was performed as duplicate measurements and calculated using Quattro Workflow V3.1.1 (Quattro Research GmbH, Germany). Apparent inhibition constants (Ki) values were calculated from Km (ATP) and IC50 values for the respective kinases.
# MV-4-11 = experiment: Cell viability assay (resazurin, leukemia cell lines), 72 h growth inhibition; format: cell-based; details: Homo sapiens, MV4-11, MV-4-11 cells
# Source text: Compounds from Example 1 may be subjected to a standard MTT (3-(4,5-dimethylthiazol-2-yl)-2,5-diphenyltetrazolium bromide) and resazurin assays on solid tumour cell lines and leukemia cell lines, respectively, as previously reported (Wang S et al., J Med Chem 47:1662-1675, 2004 and Diab S e al. CheMedChem 9:962-972, 2014). Compound concentrations required to inhibit 50% of cell growth (GI50) can be calculated using non-linear regression analysis.
SMILES,IC50 (CDK8/CycC) [µM],GI50 (MV-4-11) [µM]
"CNc1nccc(-c2sc(NC(=O)Nc3ccc(F)cc3C)nc2C)n1 [Compound 6, 1-(4-Fluoro-2-methylphenyl)-3-(4-methyl-5-(2-(methylamino)-pyrimidin-4-yl)thiazol-2-yl)urea]",0.233,
"CNc1nccc(-c2sc(NC(=O)Nc3ccc(F)cc3C(F)(F)F)nc2C)n1 [Compound 7, 1-(4-fluoro-2-(trifluoromethyl)-phenyl)-3-(4-methyl-5-(2-(methylamino)-pyrimidin-4-yl)thiazol-2-yl)urea]",2.3,
"CNc1nccc(-c2sc(NC(=O)Nc3cccc(OC)c3)nc2C)n1 [Compound 16, 1-(3-Methoxyphenyl)-3-(4-methyl-5-(2-(methylamino)pyrimidin-4-yl)thiazol-2-yl)urea]",0.009,2.27 ± 0.68
"CNc1nccc(-c2sc(NC(=O)Nc3ccc(CN4CCN(C(C)=O)CC4)c(C(F)(F)F)c3)nc2C)n1 [Compound 35, 1-(4-((4-Acetylpiperazin-1-yl)methyl)-3-(trifluoromethyl)-phenyl)-3-(4-methyl-5-(2-(methylamino)pyrimidin-4-yl)thiazol-2-yl)urea]",0.014,0.085
"CNc1nccc(-c2sc(NC(=O)Nc3ccc(CN4CCCCC4)c(C(F)(F)F)c3)nc2C)n1 [Compound 38, 1-(4-Methyl-5-(2-(methylamino)-pyrimidin-4-yl)thiazol-2-yl)-3-(4-(piperidin-1-ylmethyl)-3-(trifluoromethyl)phenyl)urea]",,0.994 ± 0.13
"CNc1nccc(-c2sc(NC(=O)Nc3ccc(CN4CCC(N)CC4)c(C(F)(F)F)c3)nc2C)n1 [Compound 39, 1-(4-((4-Aminopiperidin-1-yl)methyl)-3-(trifluoromethyl)-phenyl)-3-(4-methyl-5-(2-(methylamino)pyrimidin-4-yl)thiazol-2-yl)urea]",0.008,0.096
"CNc1nccc(-c2sc(NC(=O)Nc3ccc(CN4CCC(C)CC4)c(C(F)(F)F)c3)nc2C)n1 [Compound 40, 1-(4-Methyl-5-(2-(methylamino)-pyrimidin-4-yl)thiazol-2-yl)-3-(4-((4-methylpiperidin-1-yl)methyl)-3-(trifluoromethyl)phenyl)urea]",0.034,2.51 ± 0.39
"Cc1nc(NC(=O)Nc2ccc(CN3CCN(C)CC3)c(C(F)(F)F)c2)sc1-c1ccnc(N(C)C)n1 [Compound 49, 1-(5-(2-(Dimethylamino)pyrimidin-4-yl)-4-methylthiazol-2-yl)-3-(4-((4-methylpiperazin-1-yl)methyl)-3-(trifluoromethyl)phenyl)urea]",0.082,< 0.001
"CC(=O)N1CCN(Cc2ccc(NC(=O)Nc3nc(C)c(-c4ccnc(N(C)C)n4)s3)cc2C(F)(F)F)CC1 [Compound 50, 1-(4-((4-Acetylpiperazin-1-yl)methyl)-3-(trifluoromethyl)-phenyl)-3-(5-(2-(dimethylamino)-pyrimidin-4-yl)-4-methylthiazol-2-yl)urea]",0.202,0.612 ± 0.06
"CCNc1nccc(-c2sc(NC(=O)Nc3ccc(CN4CCN(C)CC4)c(C(F)(F)F)c3)nc2C)n1 [Compound 52, 1-(5-(2-(Ethylamino)pyrimidin-4-yl)-4-methylthiazol-2-yl)-3-(4-((4-methylpiperazin-1-yl)methyl)-3-(trifluoromethyl)phenyl)urea]",0.015,< 0.001
"CCNc1nccc(-c2sc(NC(=O)Nc3ccc(CN4CCN(CC)CC4)c(C(F)(F)F)c3)nc2C)n1 [Compound 53, 1-(5-(2-(Ethylamino)pyrimidin-4-yl)-4-methylthiazol-2-yl)-3-(4-((4-ethylpiperazin-1-yl)methyl)-3-(trifluoromethyl)phenyl)urea]",0.09,< 0.001
"CCNc1nccc(-c2sc(NC(=O)Nc3ccc(CN4CCN(C(C)C)CC4)c(C(F)(F)F)c3)nc2C)n1 [Compound 54, 1-(5-(2-(ethylamino)pyrimidin-4-yl)-4-methylthiazol-2-yl)-3-(4-((4-isopropylpiperazin-1-yl)methyl)-3-(trifluoromethyl)phenyl)urea]",0.016,< 0.001
"CCNc1nccc(-c2sc(NC(=O)Nc3ccc(CN4CCN(C(C)=O)CC4)c(C(F)(F)F)c3)nc2C)n1 [Compound 55, 1-(4-((4-Acetylpiperazin-1-yl)methyl)-3-(trifluoromethyl)-phenyl)-3-(5-(2-(ethylamino)-pyrimidin-4-yl)-4-methylthiazol-2-yl)urea]",0.035,0.214 ± 0.12
"CNc1nccc(-c2cnc(NC(=O)Nc3ccc(CN4CCN(C)CC4)c(C(F)(F)F)c3)s2)n1 [Compound 58, 1-(5-(2-(Methylamino)pyrimidin-4-yl)thiazol-2-yl)-3-(4-((4-methylpiperazin-1-yl)methyl)-3-(trifluoromethyl)phenyl)urea]",0.007,0.001
"CCN1CCN(Cc2ccc(NC(=O)Nc3ncc(-c4ccnc(NC)n4)s3)cc2C(F)(F)F)CC1 [Compound 59, 1-(4-((4-Ethylpiperazin-1-yl)methyl)-3-(trifluoromethyl)phenyl)-3-(5-(2-(methylamino)pyrimidin-4-yl)thiazol-2-yl)urea]",0.012,0.001
"Cc1nc(NC(=O)Nc2ccc(CN3CCOCC3)c(C(F)(F)F)c2)sc1-c1ccnc(N)n1 [Compound 64, 1-(5-(2-Aminopyrimidin-4-yl)-4-methylthiazol-2-yl)-3-(4-(morpholinomethyl)-3-(trifluoromethyl)phenyl)urea]",0.015,0.275 ± 0.05

# Next, values leading:
IC50 (CDK8/CycC) [µM],GI50 (MV-4-11) [µM],SMILES
1.36,,"CNc1nccc(-c2sc(NC(=O)Nc3ccccc3C(F)(F)F)nc2C)n1 [Compound 2, 1-(4-Methyl-5-(2-(methylamino)-pyrimidin-4-yl)thiazol-2-yl)-3-(2-(trifluoromethyl)phenyl)urea]"
0.065,,"CNc1nccc(-c2sc(NC(=O)Nc3ccc(C(F)(F)F)cc3C(F)(F)F)nc2C)n1 [Compound 8, 1-(2,4-Bis(trifluoromethyl)phenyl)-3-(4-methyl-5-(2-(methylamino)-pyrimidin-4-yl)thiazol-2-yl)urea]"
0.011,< 0.001,"CNc1nccc(-c2sc(NC(=O)Nc3ccc(CN4CCN(C(C)C)CC4)c(C(F)(F)F)c3)nc2C)n1 [Compound 34, 1-(4-((4-Isopropylpiperazin-1-yl)methyl)-3-(trifluoromethyl)-phenyl)-3-(4-methyl-5-(2-(methylamino)pyrimidin-4-yl)thiazol-2-yl)urea]"
0.032,0.076 ± 0.01,"CNc1nccc(-c2sc(NC(=O)Nc3ccc(CN4CCN(S(C)(=O)=O)CC4)c(C(F)(F)F)c3)nc2C)n1 [Compound 36, 1-(4-Methyl-5-(2-(methylamino)-pyrimidin-4-yl)thiazol-2-yl)-3-(4-((4-(methylsulfonyl)piperazin-1-yl)methyl)-3-(trifluoromethyl)-phenyl)urea]"
0.019,,"CNc1nccc(-c2sc(NC(=O)Nc3ccc(C(F)(F)F)cc3)nc2C)n1 [Compound 41, 1-(4-Methyl-5-(2-(methylamino)pyrimidin-4-yl)thiazol-2-yl)-3-(4-(trifluoromethyl)phenyl)urea]"
0.021,0.529 ± 0.12,"CCNc1nccc(-c2sc(NC(=O)Nc3ccc(CN4CCOCC4)c(C(F)(F)F)c3)nc2C)n1 [Compound 56, 1-(5-(2-(Ethylamino)pyrimidin-4-yl)-4-methylthiazol-2-yl)-3-(4-(morpholinomethyl)-3-(trifluoromethyl)phenyl)urea]"
0.049,6.16 ± 0.14,"CCNc1nccc(-c2sc(NC(=O)Nc3ccc(CN4CCC(C)CC4)c(C(F)(F)F)c3)nc2C)n1 [Compound 57, 1-(5-(2-(Ethylamino)pyrimidin-4-yl)-4-methylthiazol-2-yl)-3-(4-((4-methylpiperidin-1-yl)methyl)-3-(trifluoromethyl)phenyl)urea]"
0.016,0.007,"CNc1nccc(-c2cnc(NC(=O)Nc3ccc(CN4CCN(C(C)C)CC4)c(C(F)(F)F)c3)s2)n1 [Compound 60, 1-(4-((4-Isopropylpiperazin-1-yl)methyl)-3-(trifluoromethyl)phenyl)-3-(5-(2-(methylamino)pyrimidin-4-yl)thiazol-2-yl)urea]"
0.02,0.176 ± 0.04,"CNc1nccc(-c2cnc(NC(=O)Nc3ccc(CN4CCN(C(C)=O)CC4)c(C(F)(F)F)c3)s2)n1 [Compound 61, 1-(4-((4-Acetylpiperazin-1-yl)methyl)-3-(trifluoromethyl)phenyl)-3-(5-(2-(methylamino)pyrimidin-4-yl)thiazol-2-yl)urea]"
0.014,0.001,"CCN1CCN(Cc2ccc(NC(=O)Nc3nc(C)c(-c4ccnc(N)n4)s3)cc2C(F)(F)F)CC1 [Compound 62, 1-(5-(2-Aminopyrimidin-4-yl)-4-methylthiazol-2-yl)-3-(4-((4-ethylpiperazin-1-yl)methyl)-3-(trifluoromethyl)phenyl)urea]"
0.013,0.003,"Cc1nc(NC(=O)Nc2ccc(CN3CCN(C(C)C)CC3)c(C(F)(F)F)c2)sc1-c1ccnc(N)n1 [Compound 63, 1-(5-(2-Aminopyrimidin-4-yl)-4-methylthiazol-2-yl)-3-(4-((4-isopropylpiperazin-1-yl)methyl)-3-(trifluoromethyl)phenyl)urea]"
